Experimental findings from patent publication US20090325959A1 (priority 2008, published 2009) are described below.

For one test, the target named is T1, ROCK2 (Homo sapiens, UniProt O75116).
T1 construct: purchased Upstate/Chemicon 14-451
Description: Rho kinase inhibition assay (IMAP fluorescence polarization), ROCK2.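 Further: kinase reaction started with 10 µM ATP and run 60 min at room temperature, then phosphorylated substrate captured on IMAP beads for 30 min and fluorescence polarization read in mP.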 Type of test: biochemical.

The target in another test is T2, ROCK1 (Homo sapiens, UniProt Q13464).
T2 construct: purchased Upstate/Chemicon 14-601
T2 sequence (Q13464 17-535 limits assumed): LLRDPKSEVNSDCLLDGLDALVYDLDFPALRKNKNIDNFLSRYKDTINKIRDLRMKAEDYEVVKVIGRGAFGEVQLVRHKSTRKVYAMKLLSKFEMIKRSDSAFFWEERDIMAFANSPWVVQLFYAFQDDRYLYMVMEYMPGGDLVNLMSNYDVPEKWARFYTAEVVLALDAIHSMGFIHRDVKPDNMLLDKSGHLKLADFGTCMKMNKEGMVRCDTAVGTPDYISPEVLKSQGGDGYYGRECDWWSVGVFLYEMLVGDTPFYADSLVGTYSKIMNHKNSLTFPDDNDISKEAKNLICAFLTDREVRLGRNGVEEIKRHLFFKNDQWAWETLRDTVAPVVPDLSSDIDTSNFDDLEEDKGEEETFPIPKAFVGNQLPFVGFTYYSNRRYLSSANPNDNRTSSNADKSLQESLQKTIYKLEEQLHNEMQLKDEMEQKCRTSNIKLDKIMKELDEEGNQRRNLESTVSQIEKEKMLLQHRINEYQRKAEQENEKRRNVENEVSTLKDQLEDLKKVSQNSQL
Description: Rho kinase inhibition assay (IMAP fluorescence polarization), ROCK1.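 Further: kinase reaction run 60 min at room temperature, then phosphorylated substrate captured on IMAP beads for 30 min, with fluorescence polarization read in mP.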 Type of test: biochemical. Background: In fluorescence polarisation assays a small probe gives low polarisation when free and higher when bound to something large.

The mark [1] stands for this setting: 10 μM ATP, read-out: ROCK2 Ki, Avg.

The structures appear in SMILES notation. Where two headings read alike, the source gives them in different places.

T1 sequence (O75116 11-552 limits assumed): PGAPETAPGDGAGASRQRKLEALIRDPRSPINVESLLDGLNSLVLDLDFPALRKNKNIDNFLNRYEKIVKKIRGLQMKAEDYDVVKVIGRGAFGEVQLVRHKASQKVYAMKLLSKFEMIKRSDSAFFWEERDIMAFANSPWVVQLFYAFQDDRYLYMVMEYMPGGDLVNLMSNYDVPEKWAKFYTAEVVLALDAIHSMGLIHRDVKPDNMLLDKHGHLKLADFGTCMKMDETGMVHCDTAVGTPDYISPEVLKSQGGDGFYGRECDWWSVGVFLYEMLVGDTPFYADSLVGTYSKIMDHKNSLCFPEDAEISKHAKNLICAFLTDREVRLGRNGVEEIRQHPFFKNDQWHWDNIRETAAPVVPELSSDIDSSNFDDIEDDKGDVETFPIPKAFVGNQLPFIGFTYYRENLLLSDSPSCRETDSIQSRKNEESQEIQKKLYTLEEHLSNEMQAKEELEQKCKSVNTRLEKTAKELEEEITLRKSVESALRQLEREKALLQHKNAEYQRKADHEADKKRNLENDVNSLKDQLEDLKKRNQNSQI
Description for ROCK1: (§1) Following the pre-incubation, 10 μM ATP was added to initiate the reaction. After 60 minutes at room temperature, Molecular Devices IMAP™ binding solution was added to bind phosphorylated substrate. After 30 minutes of incubation in the presence of the IMAP™ beads, the fluorescence polarization was read and the ratio was reported as mP. IC50 values for compounds and EC50 values for ATP were calculated using the Prism software from Graphpad.
Description for ROCK2: as §1

For orientation: Ki means a dissociation constant, usually derived from enzyme kinetics or from competition with a known ligand. For `OCC1COc2ccc(CN3CCC[C@@H](Nc4ccc5[nH]ncc5c4)C3)cc2O1` (stereo partly drawn) [Compound 1.264, (7-(((R)-3-(1H-indazol-5-ylamino)piperidin-1-yl)methyl)-2,3-dihydrobenzo[b][1,4]dioxin-2-yl)methanol], the Ki at ROCK2 (setting [1]) is 59.4 nM; on ROCK1 (Avg, 10 μM ATP), 494 nM.

`CNC(=O)Nc1cccc(CN2CCC[C@@H](Nc3ccc4[nH]ncc4c3)C2)c1` [Compound 1.265, (R)-1-(3-((3-(1H-indazol-5-ylamino)piperidin-1-yl)methyl)phenyl)-3-methylurea]: the Ki on ROCK2 (setting [1]) came to 21.6 nM; at ROCK1 (Avg, 10 μM ATP), 162 nM.

In the case of `O=C(Nc1cccc(CN2CCC[C@@H](Nc3ccc4[nH]ncc4c3)C2)c1)N1CCCC1` [Compound 1.266, (R)-N-(3-((3-(1H-indazol-5-ylamino)piperidin-1-yl)methyl)phenyl)pyrrolidine-1-carboxamide], the Ki at ROCK2 (setting [1]) was 17.1 nM; on ROCK1 (Avg, 10 μM ATP) it was 53.8 nM.

As to `CCN(CC)C(=O)Nc1cccc(CN2CCC[C@@H](Nc3ccc4[nH]ncc4c3)C2)c1` [Compound 1.267, (R)-3-(3-((3-(1H-indazol-5-ylamino)piperidin-1-yl)methyl)phenyl)-1,1-diethylurea], the Ki came to 23.9 nM on ROCK2 (setting [1]) and 98.8 nM at ROCK1 (Avg, 10 μM ATP).

For `OCCn1ccc2cc(CN3CCC[C@@H](Nc4ccc5[nH]ncc5c4)C3)ccc21` [Compound 1.268, (R)-2-(5-((3-(1H-indazol-5-ylamino)piperidin-1-yl)methyl)-1H-indol-1-yl)ethanol], the Ki on ROCK2 (setting [1]) is 40.7 nM; at ROCK1 (Avg, 10 μM ATP), 404 nM.

As for `OCCn1ccc2cc(CN3CCC[C@H](Nc4ccc5[nH]ncc5c4)C3)ccc21` [Compound 1.269, (S)-2-(5-((3-(1H-indazol-5-ylamino)piperidin-1-yl)methyl)-1H-indol-1-yl)ethanol], the Ki at ROCK2 (setting [1]) was 22.8 nM; on ROCK1 (Avg, 10 μM ATP), 239 nM.

`O=S(=O)(Nc1cccc(CN2CCC[C@H](Nc3ccc4[nH]ncc4c3)C2)c1)N1CCCCC1` [Compound 1.270, (S)-N-(3-((3-(1H-indazol-5-ylamino)piperidin-1-yl)methyl)phenyl)piperidine-1-sulfonamide]: the Ki on ROCK2 (setting [1]) was 9.9 nM; on ROCK2 (average Ki, read-out: ROCK2 Ki) it was 9.9 nM; on ROCK1 (Avg, 10 μM ATP), 130 nM; at ROCK1 (average Ki), 130 nM.

In the case of `c1ccc(Cn2cc(CN3CCC[C@@H](Nc4ccc5[nH]ncc5c4)C3)c3ccccc32)cc1` [Compound 1.271, (R)-N-(11-((1-benzyl-1H-indol-3-yl)methyl)piperidin-3-yl)-1H-indazol-5-amine], the Ki at ROCK2 (setting [1]) was found to be 77.7 nM; on ROCK1 (Avg, 10 μM ATP), 332 nM.

For the compound `CS(=O)(=O)N1CCCc2cc(CN3CCC[C@H](Nc4ccc5[nH]ncc5c4)C3)ccc21` [Compound 1.272, (S)-N-(1-((1-(methylsulfonyl)-1,2,3,4-tetrahydroquinolin-6-yl)methyl)piperidin-3-yl)-1H-indazol-5-amine], the Ki at ROCK2 (setting [1]) was 194 nM; at ROCK1 (Avg, 10 μM ATP), 1820 nM.

Regarding `OCCn1cc(CN2CCC[C@@H](Nc3ccc4[nH]ncc4c3)C2)c2ccccc21` [Compound 1.273, (R)-2-(3-((3-(1H-indazol-5-ylamino)piperidin-1-yl)methyl)-1H-indol-1-yl)ethanol], the Ki stood at 8.2 nM at ROCK2 (setting [1]); 8.2 nM on ROCK2 (average Ki, read-out: ROCK2 Ki); 31.3 nM on ROCK1 (Avg, 10 μM ATP); 31.3 nM at ROCK1 (average Ki).

Consider `Cc1c(CN2CCC[C@H](Nc3ccc4[nH]ncc4c3)C2)cccc1NS(C)(=O)=O` [Compound 1.274, (S)-N-(3-((3-(1H-indazol-5-ylamino)piperidin-1-yl)methyl)-2-methylphenyl)methanesulfonamide], for which the Ki came to 10.7 nM on ROCK2 (setting [1]) and 223 nM on ROCK1 (Avg, 10 μM ATP).

Regarding `Cc1ccc(CN2CC[C@@H](Nc3ccc4[nH]ncc4c3)C2)cc1OCCO` [Compound 1.276], the Ki at ROCK2 (setting [1]) was 12.3 nM; on ROCK1 (Avg, 10 μM ATP), 64.2 nM.

For the compound `Cc1nc(CN2CCC[C@H](Nc3ccc4[nH]ncc4c3)C2)c(C)o1` [Compound 1.279, (S)-N-(1-((2,5-dimethyloxazol-4-yl)methyl)piperidin-3-yl)-1H-indazol-5-amine], the Ki at ROCK2 (setting [1]) was 34.2 nM; on ROCK1 (Avg, 10 μM ATP), 456 nM.

As for `COc1c(CN2CCC[C@H](Nc3ccc4[nH]ncc4c3)C2)cccc1NS(C)(=O)=O` [Compound 1.280, (S)-N-(3-((3-(1H-indazol-5-ylamino)piperidin-1-yl)methyl)-2-methoxyphenyl)methanesulfonamide], the Ki on ROCK2 (setting [1]) amounted to 38 nM; on ROCK1 (Avg, 10 μM ATP), 746 nM.

As to `Cc1ccc(CN2CCC[C@@H](Nc3ccc4[nH]ncc4c3)C2)cc1OCC(N)=O` [Compound 1.281], the Ki is 7.4 nM on ROCK2 (setting [1]); 7.4 nM at ROCK2 (average Ki, read-out: ROCK2 Ki); 71.8 nM at ROCK1 (Avg, 10 μM ATP); 71.8 nM on ROCK1 (average Ki).

For `N#Cc1cccc(CN2CCC(Nc3cccc4cnccc34)C2)c1` (stereo not drawn) [Compound 2.007, 3-((3-(isoquinolin-5-ylamino)pyrrolidin-1-yl)methyl)benzonitrile], the Ki is 179 nM at ROCK2 (setting [1]) and 390 nM at ROCK1 (Avg, 10 μM ATP).

Consider `c1cc(CN2CC[C@@H](Nc3cccc4cnccc34)C2)cc(C2CC2)c1` [Compound 2.020, (R)-N-(1-(3-cyclopropylbenzyl)pyrrolidin-3-yl)isoquinolin-5-amine], for which the Ki at ROCK2 (setting [1]) turned out to be 36.5 nM; at ROCK1 (Avg, 10 μM ATP) it was 101 nM.

In the case of `CS(=O)(=O)Nc1cccc(CN2CCC[C@H](Nc3cccc4cnccc34)C2)c1` [Compound 2.037, (S)-N-(3-((3-(isoquinolin-5-ylamino)piperidin-1-yl)methyl)phenyl)methanesulfonamide], the Ki on ROCK2 (setting [1]) amounted to 182 nM; at ROCK1 (Avg, 10 μM ATP), 921 nM.

Take `NC(=O)COc1cccc(CN2CC[C@@H](Nc3cccc4cnccc34)C2)c1` [Compound 2.040, (R)-2-(3-((3-(isoquinolin-5-ylamino)pyrrolidin-1-yl)methyl)phenoxy)acetamide]: the Ki at ROCK2 (setting [1]) stood at 25.4 nM; on ROCK1 (Avg, 10 μM ATP), 59.6 nM.

In the case of `O=C(COc1cccc(CN2CC[C@@H](Nc3cccc4cnccc34)C2)c1)N1CCOCC1` [Compound 2.043, (R)-2-(3-((3-(isoquinolin-5-ylamino)pyrrolidin-1-yl)methyl)phenoxy)-1-morpholinoethanone], the Ki was 21.5 nM on ROCK2 (setting [1]) and 49.4 nM on ROCK1 (Avg, 10 μM ATP).

With `O=C(O)COc1cccc(CN2CC[C@@H](Nc3cccc4cnccc34)C2)c1` [Compound 2.044, (R)-2-(3-((3-(isoquinolin-5-ylamino)pyrrolidin-1-yl)methyl)phenoxy)acetic acid], the Ki on ROCK2 (setting [1]) worked out at 24.1 nM; on ROCK1 (Avg, 10 μM ATP), 81.4 nM.

Take `Clc1ccc(CN2CC[C@@H](Nc3cccc4cnccc34)C2)cc1Cl` [Compound 2.048, (R)-N-(1-(3,4-dichlorobenzyl)pyrrolidin-3-yl)isoquinolin-5-amine]: the Ki on ROCK2 (setting [1]) was 34.6 nM; on ROCK1 (Avg, 10 μM ATP), 71.5 nM.

Take `FC(F)(F)c1cccc(CN2CC[C@@H](Nc3cccc4cnccc34)C2)c1` [Compound 2.049, (R)-N-(1-(3-(trifluoromethyl)benzyl)pyrrolidin-3-yl)isoquinolin-5-amlne]: the Ki amounted to 48 nM at ROCK2 (setting [1]) and 113 nM on ROCK1 (Avg, 10 μM ATP).

Take `c1ccc(CN2CCC[C@H](Nc3cccc4cnccc34)C2)cc1` [Compound 2.050, (S)-N-(1-benzylpiperidin-3-yl)isoquinolin-5-amine]: the Ki at ROCK2 (setting [1]) worked out at 251 nM; on ROCK1 (Avg, 10 μM ATP), 368 nM.

For `CSc1ccc(CN2CCC[C@H](Nc3cccc4cnccc34)C2)cc1` [Compound 2.051, (S)-N-(1-(4-(methylthio)benzyl)piperidin-3-yl)isoquinolin-5-amine], the Ki at ROCK2 (setting [1]) amounted to 1180 nM; at ROCK1 (Avg, 10 μM ATP), 1440 nM.

For the compound `COc1ccc(CN2CCC[C@H](Nc3cccc4cnccc34)C2)cc1` [Compound 2.053, (S)-N-(1-(4-methoxybenzyl)piperidin-3-yl)isoquinolin-5-amine], the Ki at ROCK2 (setting [1]) was found to be 182 nM; at ROCK1 (Avg, 10 μM ATP), 952 nM.

As for `c1cc(N[C@@H]2CCN(Cc3ccc4c(c3)OCCO4)C2)c2ccncc2c1` [Compound 2.056, (R)-N-(1-((2,3-dihydrobenzo[b][1,4]dioxin-6-yl)methyl)pyrrolidin-3-yl)isoquinolin-5-amine], the Ki amounted to 48.7 nM at ROCK2 (setting [1]) and 107 nM at ROCK1 (Avg, 10 μM ATP).

`Fc1ccc(CN2CC[C@@H](Nc3cccc4cnccc34)C2)cc1F` [Compound 2.062, (R)-N-(1-(3,4-difluorobenzyl)pyrrolidin-3-yl)isoquinolin-5-amine]: the Ki on ROCK2 (setting [1]) was 30.5 nM; at ROCK1 (Avg, 10 μM ATP) it was 63.4 nM.

Consider `CC(=O)NCc1cccc(CN2CC[C@@H](Nc3cccc4cnccc34)C2)c1` [Compound 2.063, (R)-N-(3-((3-(isoquinolin-5-ylamino)pyrrolidin-1-yl)methyl)benzyl)acetamide], for which the Ki on ROCK2 (setting [1]) stood at 73.9 nM; at ROCK1 (Avg, 10 μM ATP), 206 nM.

Turning to `COc1ccc(CN2CC[C@@H](Nc3cccc4cnccc34)C2)cc1OCCO` [Compound 2.067, (R)-2-(5-((3-(isoquinolin-5-ylamino)pyrrolidin-1-yl)methyl)-2-methoxyphenoxy)ethanol], the Ki at ROCK2 (setting [1]) was determined as 4.2 nM; at ROCK2 (average Ki, read-out: ROCK2 Ki) it was 4.2 nM; at ROCK1 (Avg, 10 μM ATP), 19.6 nM; on ROCK1 (average Ki) it was 19.6 nM.

With `OCCOc1cc(CN2CC[C@@H](Nc3cccc4cnccc34)C2)ccc1F` [Compound 2.068, (R)-2-(2-fluoro-5-((3-(isoquinolin-5-ylamino)pyrrolidin-1-yl)methyl)phenoxy)ethanol], the Ki at ROCK2 (setting [1]) is 5.8 nM; at ROCK2 (average Ki, read-out: ROCK2 Ki), 5.8 nM; on ROCK1 (Avg, 10 μM ATP), 8 nM; on ROCK1 (average Ki), 8 nM.

As to `O=S(=O)(Nc1cccc(CN2CC[C@@H](Nc3cccc4cnccc34)C2)c1)N1CCCCC1` [Compound 2.069, (R)-N-(3-((3-(isoquinolin-5-ylamino)pyrrolidin-1-yl)methyl)phenyl)piperidine-1-sulfonamide], the Ki on ROCK2 (setting [1]) was 2.4 nM; on ROCK2 (average Ki, read-out: ROCK2 Ki), 2.4 nM; at ROCK1 (Avg, 10 μM ATP) it was 16.7 nM; at ROCK1 (average Ki) it was 16.7 nM.

Consider `CS(=O)(=O)N1CCCc2cc(CN3CC[C@@H](Nc4cccc5cnccc45)C3)ccc21` [Compound 2.070, (R)-N-(1-((1-(methylsulfonyl)-1,2,3,4-tetrahydroquinolin-6-yl)methyl)pyrrolidin-3-yl)isoquinolin-5-amine], for which the Ki at ROCK2 (setting [1]) stood at 48.4 nM; at ROCK1 (Avg, 10 μM ATP), 286 nM.
